We go through 35 compounds from a melting point compilation (Tetko et al.; mined from patent text by program, amines drawn as free bases though some values may be those of a salt).

Some results are limits rather than exact numbers.

In turn, `Cc1ccc(Oc2ccc(OC(=O)NC(C)CCCC(C)C)cc2)cc1` (stereo not given) came in with a melting point of 45 to 47 °C.
Then `Cn1ccnc1S(=O)c1ccccc1Cl` (stereo not given), with 132 to 134 °C; and `COc1nc(CC(=O)OC(C)(C)C)c([N+](=O)[O-])cc1C`, with 71 to 72.5 °C.
The result for `CC(C)C1(C)NC(c2nc(-c3ccsc3)ccc2C(=O)O)=NC1=O` (stereo not given) reads 253 to 257 °C.
Then `CCCCN1C(=O)NC(Cc2ccc(C=O)cc2)C1=O` (stereo not given), with 160 °C; and `Clc1ccc(-c2nccs2)cc1`, with 169 to 170 °C; and `CCCN1CCc2ccc(C(=O)CCC(=O)N3CCC(c4ccc(Cl)cc4)CC3)cc2CC1`, with 151 to 152 °C.
`CCC1c2cc(OC)c(OC)cc2C(C=Cc2ccc(N)cc2)=NNC1C` (stereo not given) had a melting point of 155 to 158 °C.
`CCOCc1nc2c(N)nc3cc(-c4cccnc4)ccc3c2n1CCCCS(N)(=O)=O` displayed a melting point of 250 to 252 °C.
Then `CC(=O)NCCC1Nc2ccccc2N2CCc3cccc1c32` (stereo not given), with 196 to 198 °C; and `COc1ccc2nc3c(cc2c1)c(N)nn3CC(=O)N(C)C`, with 251 to 253 °C; and `O=C1c2ccccc2C(=O)N1c1cccc(S(F)(F)(F)(F)F)c1`, with 188 to 190 °C.
Then `CN1C(=O)C(F)N=C(c2ccccc2F)c2cc(Br)ccc21` (stereo not given), with 127 to 130 °C; and `O=C1CC(NC(=O)c2cccnc2)CCCN1` (stereo not given), with 220 to 221 °C.
Then `CCCCOC(=O)c1cc(O)c(O)c(C#N)c1`, with 135 to 140 °C.
As for `CCCCCCCCCCCCCCCC(=O)Nc1cc([N+](=O)[O-])ccc1O`, the melting point lay in the range of 146 to 148 °C.
The compound `CN1C(O)=C(C(=O)NCc2ccccc2)c2ccsc2S1(=O)=O` gave a melting point of 176 to 177 °C.
`Cc1ccc(Oc2ccc(-c3ccccc3)cc2)cc1` showed a melting point of 97 to 99 °C.
Then `O=c1cc(CCCl)c2ccccc2[nH]1`, with 186 to 187 °C.
Then `Cc1ccc(S(=O)(=O)OC2CCC3(C)C4CCC5(C)C(=O)CCC5C4CC(O)C3(O)C2)cc1` (stereo not given), with 154 to 156 °C.
Then `CC(O)C(O)c1nc2c(C(F)(F)F)cccc2c(O)c1C(=O)Nc1nccs1` (stereo not given), with 275 °C.
As for `O=C(Nc1ccc(Br)cc1)Nc1cc(C(F)(F)F)ccc1Oc1ccccc1C(=O)O`, the melting point was 229 to 231 °C.
The result for `COC(=O)c1ccc(NC(=O)c2sc3ccc(OC)cc3c2OC(C)C)cc1O` reads 158 to 160 °C; that for `O=C(Nc1ccc(Cc2nnn[nH]2)cc1)C(F)(F)C(F)(F)C(F)(F)C(F)(F)F`, 173 to 174 °C.
On to `CCOC(=O)c1cc2c(=O)n(CC)c3ccccc3n2c1`, for which the melting point fell in the range of 184 to 186 °C.
The result for `COc1ccc2c(c1)CNCC(=O)N2` reads 148 °C; that for `O=C(O)c1cc([N+](=O)[O-])cc2c1Nc1cc(-c3ccccc3)ccc1O2`, over 250 °C; that for `CSc1cccc(-c2ccccc2N)c1`, 114 to 115 °C.
Then `CC(=O)Oc1ccc(O[C@@H]2CCN(C)C[C@H]2c2ccccc2)cc1` (relative stereo), with 79.5 to 82 °C; and `CN(C)CC(C)(C)CNc1ncc2cc(-c3c(Cl)cccc3Cl)c(NC(=O)NC(C)(C)C)nc2n1`, with 161 to 170 °C.
Then `CCOC(=O)c1c(O)c2ccc(C)nc2n(C)c1=O`, with 143 to 145 °C.
`Cc1ccc(-c2c(Cl)nc(C#N)n2S(=O)(=O)c2c(C)noc2C)cc1` showed a melting point of 103 to 108 °C.
The result for `c1cc(-c2ccc(-n3c4ccccc4c4ccccc43)cc2)cc(-n2c3ccccc3c3ccccc32)c1` reads 244 to 246 °C; that for `O=C(O)CCCCC(=O)NCc1ccc2c(c1)C(=O)N(C1CCC(=O)NC1=O)C2=O` (stereo not given), 144 to 146 °C; that for `Cc1nc2cccc(CNC(=O)OC(C)(C)C)c2c(=O)n1C1CCC(=O)NC1=O` (stereo not given), 206 to 208 °C.

A word on the melting point: it is the temperature of the solid-liquid transition.
